The target in the first assay is T1, human GPR119 receptor (Homo sapiens, UniProt Q8TDV5, S329A/T327A).
T1 construct: N-terminal leader […]; expressed in transfected cells
T1 sequence (Q8TDV5 with tags, fused parts or gaps T327A/S329A): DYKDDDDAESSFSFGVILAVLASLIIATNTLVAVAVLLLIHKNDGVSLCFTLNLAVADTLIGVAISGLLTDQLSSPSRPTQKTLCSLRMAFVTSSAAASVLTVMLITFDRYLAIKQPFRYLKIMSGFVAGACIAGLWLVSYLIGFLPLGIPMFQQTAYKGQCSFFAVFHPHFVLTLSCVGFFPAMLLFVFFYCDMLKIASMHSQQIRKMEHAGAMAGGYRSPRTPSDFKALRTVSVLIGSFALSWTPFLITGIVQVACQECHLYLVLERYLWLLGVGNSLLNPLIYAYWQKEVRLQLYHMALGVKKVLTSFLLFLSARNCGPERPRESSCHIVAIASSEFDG
Put plainly: cAMP assay (LANCE cAMP-384) in HEK293 cells stably expressing mutant human GPR119 receptor. The format is cell-based. The following applies: HEK293, 20 min; single concentration 10 μM; given where no EC50 value could be determined; read-out: % stimulation at 10 μM. The procedure: Quantitative detection of cAMP accumulation from cells expressing human GPR119 receptor was achieved using Perkin Elmer's LANCE cAMP-384 Kit (Cat#AD0264) according to the manufacturer's protocol. Briefly, HEK293 cells stably expressing a mutant form of the human GPR119 receptor (Methionine 1 replaced with the amino acid sequence […] (SEQ ID NO: 1), and T327 & S329 changed to alanines) were grown to 50-70% confluency in cell culture media (DMEM, 10% heat inactivated Fetal Bovine Serum, 50 I.U./mL penicillin, 50 μg/mL streptomycin, 10 mM HEPES, 20 μg/mL G418 Sulfate). On the day of the assay, GPR119 stable HEK293 cells were lifted from the tissue culture plate and 1000 cells/well were incubated along with various concentrations of test compounds for 20 min at 37° C. Detection Buffer (50mM HEPES, 10mM calcium chloride, 0.35% Triton X-100, 1 mg/mL BSA) containing cAMP-specific antibody was then added to all wells and allowed to equilibrate in the dark for 10 minutes at room temperature. Upon equilibration, Detection Buffer containing europium-labeled cAMP tracer complex was added to all wells and allowed to react for 1 hour at room temperature. After 1 hour, bound europium-labeled cAMP tracer was measured using a Perkin Elmer ViewLux. The quantity of cAMP generated in each well was derived from a standard curve. EC50 was determined using nonlinear regression analysis of the cAMP values over a range of agonist concentration (12 points spanning the range from 30 μM to 100pM).
For some compounds for which no EC50 value could be determined, the efficacy is provided at a single concentration (10 μM) yielding % stimulation values.
Regarding `CNCc1cc(F)c(N2CCC(=NOC3CCN(C(=O)OC(C)C)CC3)CC2)cc1F` [Example 5-6], the activation at 10 µM worked out at 78%.

Still in this assay, the particulars now being: cAMP accumulation, HEK293 cells stably expressing mutant human GPR119; read-out: EC50.
As for `CC(C)OC(=O)N1CCC(ON=C2CCN(c3ccnc(Cl)n3)CC2)CC1` [Example 2-46], the EC50 is 1.88 µM.
Still for that read-out and setting: next, `CC(C)OC(=O)N1CCC(ON=C2CCN(c3nc(C=O)c(Cl)s3)CC2)CC1` [Example 2-25]: above 10 µM; `CC(C)OC(=O)N1CCC(ON=C2CCN(c3c(C(=O)O)ccnc3Cl)CC2)CC1` [Example 2-59]: above 10 µM.
For `Cc1nc(N2CCC(=NOC3CCN(C(=O)OC(C)C)CC3)CC2)c(F)cc1CO` [Example 55-1, 4-(3′-Fluoro-5′-hydroxymethyl-6′-methyl-2,3,5,6-tetrahydro-[1,2′]bipyridinyl-4-ylideneaminooxy)-piperidine-1-carboxylic acid isopropyl ester], the EC50 came to 0.206 µM.
Regarding `CC(C)OC(=O)N1CCC(ON=C2CCN(c3cc(F)c(Cn4cnc5cccnc54)cc3F)CC2)CC1` [Example 14-6], the EC50 is 0.647 µM.
Take `CC(C)OC(=O)N1CCC(ON=C2CCN(c3cc(F)c(CN(C)CCO)cc3F)CC2)CC1` [Example 5-3]: the EC50 was above 10 µM.
Regarding `CC(C)OC(=O)N1CCC(ON=C2CCN(c3cc(F)c(-c4ccsc4)cc3F)CC2)CC1` [Example 27-12], the EC50 came out at 0.245 µM.
Turning to `CC(C)OC(=O)N1CCC(ON=C2CCN(c3ncc(C#N)c(N)n3)CC2)CC1` [Example 2-18], the EC50 was above 10 µM.
For the molecule `CC(C)OC(=O)N1CCC(ON=C2CCN(c3ccncc3F)CC2)CC1` [Example 2-72], the EC50 was determined as 0.75 µM.
`CC(C)OC(=O)N1CCC(ON=C2CCN(c3cc4[nH]cnc(=O)c4cc3F)CC2)CC1` [Example 2-61]: the EC50 was above 10 µM.
The same measure, in the same setting: next, `CC(C)OC(=O)N1CCC(ON=C2CCN(c3nc(Cl)c(CO)nc3Cl)CC2)CC1` [Example 56-1, 4-[1-(3,6-Dichloro-5-hydroxymethyl-pyrazin-2-yl)-piperidin-4-ylideneaminooxy]-piperidine-1-carboxylic acid isopropyl ester]: 0.035 µM; `Cc1cc(C(=O)O)nc(N2CCC(=NOC3CCN(C(=O)OC(C)C)CC3)CC2)n1` [Example 2-65]: above 10 µM.
On the same count and under the same terms, as for `CC(C)OC(=O)N1CCC(ON=C2CCN(c3cc(F)c(NC(=N)N)cc3F)CC2)CC1` [Example 36-1, 4-[1-(2,5-Difluoro-4-guanidino-phenyl)-piperidin-4-ylideneaminooxy]-piperidine-1-carboxylic acid isopropyl ester], the figure is 1.32 µM; as for `CC(C)OC(=O)N1CCC(ON=C2CCN(c3ncnc(F)c3F)CC2)CC1` [Example 2-58], 0.603 µM; as for `CC(C)OC(=O)N1CCC(ON=C2CCN(c3cc(F)c(-c4cncnc4)cc3F)CC2)CC1` [Example 27-6], 0.243 µM.
With `CC(C)OC(=O)N1CCC(ON=C2CCN(c3cc(F)c(Cn4cnnc4)cc3F)CC2)CC1` [Example 14-17], the EC50 was found to be 0.028 µM.

The same assay, now with this note: the 19th table; unit inferred; read-out: EC 50.
`CCc1cnc(N2CCC(ON=C3CCN(c4cc(F)c(C(=O)N5CCC(CNC)CC5)cc4F)CC3)CC2)nc1` [Example 29-130]: the EC50 was 0.206 µM.
Same read-out and setting: next, `CCc1cnc(N2CCC(ON=C3CCN(c4cc(F)c(C(=O)N5CCC[C@@H]5CNC)cc4F)CC3)CC2)nc1` [Example 29-135]: 0.297 µM; `CCc1cnc(N2CCC(ON=C3CCN(c4cc(F)c(C(=O)N5CC[C@@H](N)C5)cc4F)CC3)CC2)nc1` [Example 29-118]: 0.201 µM.

The same assay, now with this note: the 25th table; read-out: EC50.
As for `CC(C)OC(=O)N1CCC(ON=C2CCN(c3cc(F)c(/C=C/C#N)cc3F)CC2)CC1` [Example 39-2], the EC50 was found to be 0.157 µM.

The assay is the same for the next values; noted with them: the 28th table; read-out: EC50.
On to `CC(C)OC(=O)N1CCC(ON=C2CCN(c3ncc(-n4cccn4)cc3F)CC2)CC1` [Example 51-2], for which the EC50 was 0.558 µM.

The same assay, now with this note: the 30th table; read-out: EC50.
As to `Cc1nnnn1Cc1cnc(N2CCC(=NOC3CCN(C(=O)OC(C)C)CC3)CC2)c(F)c1` [Example 54-6], the EC50 is 1.15 µM.

The same assay, now with this note: the 32nd table; read-out: EC50.
Consider `CS(=O)(=O)c1ccc(N2CCC(=NOC3CCN(c4ncccn4)CC3)CC2)c(F)c1` [Example 63-8], for which the EC50 was 0.238 µM.
Take `COC(=O)c1cnc(N2CCC(ON=C3CCN(c4ccc(S(C)(=O)=O)cc4F)CC3)CC2)nc1` [Example 63-21]: the EC50 was determined as 0.26 µM.
With `CS(=O)(=O)c1ccc(N2CCC(=NOC3CCN(c4ccccn4)CC3)CC2)c(F)c1` [Example 63-1, 1-(2-Fluoro-4-methanesulfonyl-phenyl)-piperidin-4-one O-(3,4,5,6-tetrahydro-2H-[1,2′]bipyridinyl-4-yl)-oxime], the EC50 was determined as 0.459 µM.

The assay is the same for the next values; noted with them: the 33rd table; read-out: EC50.
In the case of `COC(=O)[C@@H](C)COC(=O)N1CCC(ON=C2CCN(c3ccc(S(C)(=O)=O)cc3F)CC2)CC1` [Example 64-23], the EC50 was found to be 0.928 µM.
For `CS(=O)(=O)c1ccc(N2CCC(=NOC3CCN(C(=O)OCCN4CCCC4)CC3)CC2)c(F)c1` [Example 64-20], the EC50 is above 10 µM.
The same measure, in the same setting: as for `Cc1ncccc1COC(=O)N1CCC(ON=C2CCN(c3ccc(S(C)(=O)=O)cc3F)CC2)CC1` [Example 64-26], the figure is above 10 µM; as for `CC(N)COC(=O)N1CCC(ON=C2CCN(c3ccc(S(C)(=O)=O)cc3F)CC2)CC1` (centres unmarked) [Example 64-34], above 10 µM.

Still in this assay, the particulars now being: the 34th table, compounds 65-1 to 65-24; read-out: EC50.
Turning to `CS(=O)(=O)c1ccc(N2CCC(=NOC3CCN(C(=O)c4ccccc4)CC3)CC2)c(F)c1` [Example 65-21], the EC50 came out at 0.747 µM.
In the case of `CS(=O)(=O)c1ccc(N2CCC(=NOC3CCN(C(=O)Nc4ccccc4)CC3)CC2)c(F)c1` [Example 65-17], the EC50 amounted to 2.04 µM.

The same assay, now with this note: the 36th table, compounds 66-1 to 66-51; read-out: EC50.
In the case of `Cc1ccc(CN2CCC(ON=C3CCN(c4ccc(S(C)(=O)=O)cc4F)CC3)CC2)cc1` [Example 66-26], the EC50 is 0.288 µM.
The same measure, in the same setting: next, `CS(=O)(=O)c1ccc(N2CCC(=NOC3CCN(Cc4ccc(OC(F)(F)F)cc4)CC3)CC2)c(F)c1` [Example 66-42]: 0.503 µM; `CS(=O)(=O)c1ccc(N2CCC(=NOC3CCN(Cc4ncc[nH]4)CC3)CC2)c(F)c1` [Example 66-2]: above 10 µM.
On to `CS(=O)(=O)c1ccc(N2CCC(=NOC3CCN(Cc4cscn4)CC3)CC2)c(F)c1` [Example 66-11], for which the EC50 was above 10 µM.
On to `CS(=O)(=O)c1ccc(N2CCC(=NOC3CCN(Cc4ccc(C(F)(F)F)cc4)CC3)CC2)c(F)c1` [Example 66-31], for which the EC50 came out at 0.354 µM.

The same assay, now with this note: the 37th table, compounds 66-52 to 66-64; read-out: EC50.
On to `CCCc1ccc(CN2CCC(ON=C3CCN(c4cc(F)c(S(C)(=O)=O)cc4F)CC3)CC2)cc1F` [Example 66-60], for which the EC50 stood at 0.031 µM.

The assay is the same for the next values; noted with them: the 38th table, compounds 66-65 to 66-72; read-out: EC50.
Take `CCc1ccc(CN2CCC(ON=C3CCN(c4cc(F)c(C(=O)NC)cc4F)CC3)CC2)cc1` [Example 66-71]: the EC50 is 0.079 µM.

The same assay, now with this note: the 41st table, compounds 73-1, 73-2; unit inferred; read-out: EC50.
On to `CS(=O)(=O)c1ccc(N2CCC(=NOC3CCN(C(=O)N4CCCCC4)CC3)CC2)c(F)c1` [Example 73-1, 1-(2-FLUORO-4-METHANESULFONYL-PHENYL)-PIPERIDIN-4-ONE O-[1-(PIPERIDINE-1-CARBONYL)-PIPERIDIN-4-YL]-OXIME], for which the EC50 came to 0.425 µM.

The assay is the same for the next values; noted with them: the 43rd table, compounds 75-1 to 75-38; read-out: EC50.
In the case of `CC(C)OC(=O)N1CCC(ON=C2CCN(c3cc(F)c(CC(=O)N4CC[C@@H](N)C4)cc3F)CC2)CC1` [Example 75-19], the EC50 turned out to be 0.078 µM.
Turning to `CC(C)OC(=O)N1CCC(ON=C2CCN(c3cc(F)c(CC(=O)N4CCC[C@@H]4CN4CCCC4)cc3F)CC2)CC1` [Example 75-28], the EC50 came out at 0.246 µM.
Regarding `CC(C)OC(=O)N1CCC(ON=C2CCN(c3cc(F)c(CC(=O)NC[C@H]4CCCN4)cc3F)CC2)CC1` [Example 75-11], the EC50 worked out at 0.161 µM.
The same measure, in the same setting: as for `CC(C)OC(=O)N1CCC(ON=C2CCN(c3cc(F)c(CC(=O)N4CCC[C@H](N)C4)cc3F)CC2)CC1` [Example 75-13], the figure is 0.116 µM; as for `CC(C)OC(=O)N1CCC(ON=C2CCN(c3cc(F)c(CC(=O)N4CCC(CN5CCCCC5)C4)cc3F)CC2)CC1` (centres unmarked) [Example 75-35], 0.171 µM.

The assay is the same for the next values; noted with them: the 44th table, compounds 77-1 to 77-14; read-out: EC50.
Consider `CCc1cnc(N2CCC(ON=C3CCN(c4cc(F)c(CC(=O)N5CCC[C@@H](N)C5)cc4F)CC3)CC2)nc1` [Example 77-8], for which the EC50 was 0.03 µM.
The same measure, in the same setting: as for `CCc1cnc(N2CCC(ON=C3CCN(c4cc(F)c(CC(=O)N(C)C)cc4F)CC3)CC2)nc1` [Example 77-3], the figure is 0.018 µM.
